According to PubChem BioAssay (NCI):
Values joined by “and” are separate entries in the source; they are usually repeats but may differ in a detail not shown here. Identical values can stand only once.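 How tested: cells in 96-well plates exposed to compound for 48 hours at five concentrations. The concentration for 50% growth inhibition is given as GI50. Definition used: TGI = concentration required for complete inhibition of growth.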

How the values were obtained:
Assay in all cases: NCI anticancer screen, dose series, 48 h
[1] = tested on: HT29 colon
[2] = tested on: CAKI-1 renal
[3] = tested on: MDA-MB-435
[4] = tested on: HS 578T breast
[5] = tested on: SK-MEL-2 melanoma
[6] = tested on: SR leukemia
[7] = tested on: SK-MEL-5 melanoma
[8] = tested on: UACC-62 melanoma
[9] = tested on: COLO 205 colon
[10] = tested on: HCC-2998 colon

SMILES	GI50 [1]	TGI [1]	GI50 [2]	TGI [2]	GI50 [3]	TGI [3]	GI50 [4]	TGI [4]	GI50 [5]	TGI [5]	GI50 [6]	TGI [6]	GI50 [7]	TGI [7]	GI50 [8]	TGI [8]	GI50 [9]	TGI [9]	TGI [10]	GI50 [10]
Cc1nc2c(N3CCCC3)nc(N3CCNCC3)nc2nc1NCc1ccccc1	1.95 µM	8.36 µM and 11.7 µM	4.82 µM	10.6 µM and 14 µM	4.36 µM	10 µM and 6.41 µM	7.4 µM	17 µM and 18.7 µM	4.48 µM	9.42 µM and 9.97 µM	1.53 µM	20 µM and > 20.8 µM	4.94 µM	9.98 µM and 3.06 µM	6.15 µM	12.7 µM and 7.58 µM	1.77 µM	7.59 µM and 3.32 µM	2.95 µM	
CC1(C)CC([P+](c2ccccc2)(c2ccccc2)c2ccccc2)=NN1	3.29 µM	> 100 µM	> 100 µM	> 100 µM	2.79 µM	> 100 µM	4.96 µM	> 100 µM	5.09 µM	> 100 µM	1.2 µM	5.51 µM	3.13 µM	17.7 µM	3.17 µM	> 100 µM	1.44 µM	3.36 µM	> 100 µM	2.79 µM
NC(=O)c1ccccc1NC(=O)c1ccccc1Cl	> 100 µM	> 100 µM	> 100 µM	> 100 µM	58.9 µM	> 100 µM	> 100 µM	> 100 µM	> 100 µM	> 100 µM	> 100 µM	> 100 µM	> 100 µM	> 100 µM	> 100 µM	> 100 µM	> 100 µM	> 100 µM	> 100 µM	> 100 µM
Cc1ncc(C(=O)Nc2ccc(CN3CCN(C)CC3)c(C(F)(F)F)c2)cc1C#Cc1c(N)ncc2ccccc12	0.0978 µM	0.585 µM	0.648 µM	2.35 µM	0.163 µM	0.624 µM	0.356 µM	1.26 µM	0.545 µM	1.25 µM	0.26 µM	1.04 µM	0.446 µM	0.878 µM	0.246 µM	0.781 µM	0.131 µM	0.619 µM	0.899 µM	0.446 µM
CNC1=C(C(=O)OC)SC(c2ccccc2)(c2ccccc2)SC1	20.9 µM	> 100 µM	44.1 µM	> 100 µM	3.15 µM	10.9 µM	28.1 µM	> 100 µM	7.06 µM	85.8 µM	2.4 µM	7.93 µM	19.5 µM	> 100 µM	9.51 µM	> 100 µM	23.9 µM	> 100 µM	> 100 µM	13.1 µM
COC(=O)[C@]12CC[C@@H](C)[C@H](C)[C@@H]1C1=CC[C@@H]3[C@@]4(C)C(C=O)=C[C@@](C)(COS(C)(=O)=O)C4[C@H](O)C[C@@]3(C)[C@]1(C)CC2 (some centres undefined)	1.64 µM	3.5 µM	2.05 µM	5.58 µM	1.67 µM	3.57 µM	3.12 µM	8.77 µM	2.06 µM	5.03 µM	0.299 µM	1.38 µM	1.7 µM	3.26 µM	1.66 µM	3.96 µM	1.85 µM	3.93 µM	3.12 µM	1.69 µM
COc1ccc(-c2cc(-c3cccc(NS(C)(=O)=O)c3)nc(N)c2C#N)cc1	0.0382 µM	0.731 µM	0.0766 µM	> 34.4 µM	0.0256 µM	0.121 µM	0.0468 µM	2.39 µM	0.119 µM	14.6 µM	0.047 µM	25.7 µM	0.113 µM	4.92 µM	0.0459 µM	15.9 µM	0.0747 µM	0.607 µM	2.44 µM	0.185 µM
CC(C)C[C@H](NC(=O)CCn1ccc2ncccc2c1=O)B(O)O	6.28 µM	> 100 µM	21.6 µM	> 100 µM	2.6 µM	8.86 µM	13.2 µM	> 71.7 µM	11 µM	> 79.2 µM	3.08 µM	> 100 µM	3.97 µM	19.2 µM	5.93 µM	61.7 µM	10.3 µM	> 100 µM	30.2 µM	12.9 µM
O=C1c2ccccc2-c2c1c1ccc([N+](=O)[O-])cc1c(=O)n2CCCNCCO	0.053 µM	0.82 µM	0.126 µM	1.81 µM	0.95 µM	2.67 µM	1.11 µM	4.39 µM	1.69 µM	3.82 µM	0.0355 µM	1.78 µM	0.0875 µM	0.349 µM	0.372 µM	1.85 µM	1.05 µM	2.81 µM	2.13 µM	0.817 µM
